# Results taken from the supplement of paper PMC10331698.
# ± gives the standard deviation of the averaged measurements.
# Experiments:
# Assay in all cases: level (log10 ratio to DMSO vehicle control); higher = higher biomarker level / cell amount than vehicle control
# Settings in all cases: in DMSO
# [1] = compound: CNS(=O)(=O)C(F)(F)C(F)(F)C(F)(F)C(F)(F)C(F)(F)C(F)(F)C(F)(F)C(F)(F)F [N-Methylperfluorooctanesulfonamide]
# Procedure: (§1)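 BioMAP Diversity Plus panel of 12 human primary cell co-culture systems (3C, 4H, LPS, SAg, BT, BF4T, BE3C, CASM3C, HDF3CGF, KF3CT, MyoF, Mphg). Compounds were added 1 h before stimulation and left for 24 h (MyoF 48 h; BT 72 h for soluble read-outs or 6 d for IgG). Biomarkers were read by ELISA, cytotoxicity by SRB, PBMC viability and proliferation by Alamar Blue. Each well value was divided by the mean of 8 DMSO control wells on the same plate and log10 transformed; duplicate blinded samples were tested at 4 concentrations.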
# Perfluorohexanoic acid = compound: O=C(O)C(F)(F)C(F)(F)C(F)(F)C(F)(F)C(F)(F)F [Perfluorohexanoic acid]
# Procedure: as §1
# [2] = compound: O=C(O)C(F)(F)OC(F)(F)C(F)(F)OC(F)(F)C(F)(F)C(F)(F)C(F)(F)F [Perfluoro-3,6-dioxadecanoic acid]
# Procedure: as §1
# [3] = compound: O=C(O)CCC(F)(F)C(F)(F)C(F)(F)C(F)(F)C(F)(F)F [2H,2H,3H,3H-Perfluorooctanoic acid]
# Procedure: as §1
# [4] = compound: O=C(O)C(F)(F)C(F)(F)C(F)(F)C(F)(F)C(F)(F)C(F)(F)C(F)(F)C(F)(F)C(F)(F)C(F)(F)C(F)(F)C(F)(F)C(F)(F)F [Perfluorotetradecanoic acid]
# Procedure: as §1
# [5] = compound: O=C(O)C(F)(F)C(F)(F)C(F)(F)C(F)(F)C(F)(F)C(F)(F)C(F)(F)C(F)(F)C(F)(F)C(F)(F)C(F)(F)C(F)(F)F [Perfluorotridecanoic acid]
# Procedure: as §1
# 1-(Perfluorohexyl)octane = compound: CCCCCCCCC(F)(F)C(F)(F)C(F)(F)C(F)(F)C(F)(F)C(F)(F)F [1-(Perfluorohexyl)octane]
# Procedure: as §1
test system,measurement,setting,value
BE3C:CD87/uPAR,level (log10),[1]; 6700 nM,0.0125 ± 0.015
same,level (log10),[1]; 20000 nM,0.0575 ± 0.061
same,level (log10),[1]; 60000 nM,0.083 ± 0.011
same,level (log10),Perfluorohexanoic acid; 6700 nM,-0.002 ± 0.0085
same,level (log10),Perfluorohexanoic acid; 20000 nM,-0.0105 ± 0.00071
same,level (log10),Perfluorohexanoic acid; 60000 nM,0.0205 ± 0.00071
same,level (log10),[2]; 6700 nM,0.018 ± 0.0014
same,level (log10),[2]; 20000 nM,0.0455 ± 0.025
same,level (log10),[2]; 60000 nM,0.102 ± 0.0099
same,level (log10),[3]; 6700 nM,-0.0085 ± 0.0064
same,level (log10),[3]; 20000 nM,0.005 ± 0.033
same,level (log10),[3]; 60000 nM,0.0255 ± 0.037
same,level (log10),[4]; 6700 nM,0.015 ± 0.034
same,level (log10),[4]; 20000 nM,0.065 ± 0.05
same,level (log10),[5]; 1500 nM,0.012 ± 0.038
same,level (log10),[5]; 4400 nM,-0.013 ± 0.0071
same,level (log10),[5]; 13000 nM,0.006 ± 0.018
same,level (log10),[5]; 40000 nM,0.0335 ± 0.03
same,level (log10),1-(Perfluorohexyl)octane; 6700 nM,0.0085 ± 0.00071
same,level (log10),1-(Perfluorohexyl)octane; 20000 nM,0.017 ± 0.0099
BT:Secreted IgG,level (log10),[1]; 6700 nM,0.001 ± 0.0028
same,level (log10),[1]; 20000 nM,-0.0745 ± 0.0092
same,level (log10),[1]; 60000 nM,-0.306 ± 0.21
same,level (log10),Perfluorohexanoic acid; 6700 nM,0.0085 ± 0.00071
same,level (log10),Perfluorohexanoic acid; 20000 nM,0.0155 ± 0.03
same,level (log10),Perfluorohexanoic acid; 60000 nM,-0.023 ± 0.061
same,level (log10),[2]; 6700 nM,0.0295 ± 0.012
same,level (log10),[2]; 20000 nM,0.0235 ± 0.033
same,level (log10),[2]; 60000 nM,-0.0365 ± 0.0064
same,level (log10),[3]; 6700 nM,0.016 ± 0.0028
same,level (log10),[3]; 20000 nM,-0.033 ± 0.098
same,level (log10),[3]; 60000 nM,-0.212 ± 0.17
same,level (log10),[4]; 6700 nM,-0.029 ± 0.072
same,level (log10),[4]; 20000 nM,0.001 ± 0.03
same,level (log10),[5]; 1500 nM,0.001 ± 0.042
same,level (log10),[5]; 4400 nM,-0.0025 ± 0.067
same,level (log10),[5]; 13000 nM,-0.027 ± 0.052
same,level (log10),[5]; 40000 nM,-0.029 ± 0.02
same,level (log10),1-(Perfluorohexyl)octane; 6700 nM,0.0355 ± 0.012
same,level (log10),1-(Perfluorohexyl)octane; 20000 nM,0.04 ± 0.028
BE3C:IL-1alpha,level (log10),[1]; 6700 nM,0.0325 ± 0.005
same,level (log10),[1]; 20000 nM,0.042 ± 0.013
same,level (log10),[1]; 60000 nM,0.0695 ± 0.005
same,level (log10),Perfluorohexanoic acid; 6700 nM,0.005 ± 0.0071
same,level (log10),Perfluorohexanoic acid; 20000 nM,-0.0115 ± 0.0035
same,level (log10),Perfluorohexanoic acid; 60000 nM,-0.002 ± 0.0042
same,level (log10),[2]; 6700 nM,-0.0135 ± 0.0021
same,level (log10),[2]; 20000 nM,-0.0005 ± 0.0078
same,level (log10),[2]; 60000 nM,-0.165 ± 0.021
same,level (log10),[3]; 6700 nM,-0.0075 ± 0.0064
same,level (log10),[3]; 20000 nM,-0.0125 ± 0.019
same,level (log10),[3]; 60000 nM,-0.005
same,level (log10),[4]; 6700 nM,0 ± 0.033
same,level (log10),[4]; 20000 nM,0.0145 ± 0.005
same,level (log10),[5]; 1500 nM,0.027 ± 0.04
same,level (log10),[5]; 4400 nM,-0.0165 ± 0.0078
same,level (log10),[5]; 13000 nM,0.0035 ± 0.023
same,level (log10),[5]; 40000 nM,0.024 ± 0.0057
same,level (log10),1-(Perfluorohexyl)octane; 6700 nM,0.001 ± 0.02
same,level (log10),1-(Perfluorohexyl)octane; 20000 nM,0.0415 ± 0.044
BT:sIL-6,level (log10),[1]; 6700 nM,-0.0045 ± 0.04
same,level (log10),[1]; 20000 nM,0.003 ± 0.0042
same,level (log10),[1]; 60000 nM,-0.083 ± 0.03
same,level (log10),Perfluorohexanoic acid; 6700 nM,-0.0375 ± 0.079
same,level (log10),Perfluorohexanoic acid; 20000 nM,0.013 ± 0.062
same,level (log10),Perfluorohexanoic acid; 60000 nM,-0.037 ± 0.021
same,level (log10),[2]; 6700 nM,0.0375 ± 0.029
same,level (log10),[2]; 20000 nM,0.0265 ± 0.039
same,level (log10),[2]; 60000 nM,-0.058 ± 0.033
same,level (log10),[3]; 6700 nM,0.003 ± 0.011
same,level (log10),[3]; 20000 nM,-0.0345 ± 0.013
same,level (log10),[3]; 60000 nM,-0.0825 ± 0.032
same,level (log10),[4]; 6700 nM,-0.0615 ± 0.052
same,level (log10),[4]; 20000 nM,-0.0545 ± 0.13
same,level (log10),[5]; 1500 nM,0.033 ± 0.086
same,level (log10),[5]; 4400 nM,-0.0175 ± 0.026
same,level (log10),[5]; 13000 nM,0.011 ± 0.12
same,level (log10),[5]; 40000 nM,-0.0485 ± 0.066
same,level (log10),1-(Perfluorohexyl)octane; 6700 nM,-0.0155 ± 0.094
same,level (log10),1-(Perfluorohexyl)octane; 20000 nM,-0.006 ± 0.03
BE3C:CD54/ICAM-1,level (log10),[1]; 6700 nM,0.0055 ± 0.0021
same,level (log10),[1]; 20000 nM,0.0255 ± 0.0021
same,level (log10),[1]; 60000 nM,0.016 ± 0.0071
same,level (log10),Perfluorohexanoic acid; 6700 nM,0.0065 ± 0.00071
same,level (log10),Perfluorohexanoic acid; 20000 nM,-0.0145 ± 0.0064
same,level (log10),Perfluorohexanoic acid; 60000 nM,-0.014 ± 0.013
same,level (log10),[2]; 6700 nM,-0.0105 ± 0.0021
same,level (log10),[2]; 20000 nM,-0.024 ± 0.013
same,level (log10),[2]; 60000 nM,0.008 ± 0.0057
same,level (log10),[3]; 6700 nM,-0.0065 ± 0.0078
same,level (log10),[3]; 20000 nM,-0.0085 ± 0.005
same,level (log10),[3]; 60000 nM,-0.0155 ± 0.011
same,level (log10),[4]; 6700 nM,-0.003 ± 0.025
same,level (log10),[4]; 20000 nM,0.015 ± 0.062
same,level (log10),[5]; 1500 nM,0.0015 ± 0.04
same,level (log10),[5]; 4400 nM,-0.0285 ± 0.015
same,level (log10),[5]; 13000 nM,-0.011 ± 0.0085
same,level (log10),[5]; 40000 nM,0.0035 ± 0.0021
same,level (log10),1-(Perfluorohexyl)octane; 6700 nM,0.0045 ± 0.011
same,level (log10),1-(Perfluorohexyl)octane; 20000 nM,-0.0025 ± 0.0021
LPS:CD106/VCAM-1,level (log10),[1]; 6700 nM,-0.013 ± 0.038
same,level (log10),[1]; 20000 nM,0.0295 ± 0.018
same,level (log10),[1]; 60000 nM,0.03 ± 0.027
same,level (log10),Perfluorohexanoic acid; 6700 nM,-0.0025 ± 0.0035
same,level (log10),Perfluorohexanoic acid; 20000 nM,-0.0055 ± 0.0035
same,level (log10),Perfluorohexanoic acid; 60000 nM,0.008 ± 0.0042
same,level (log10),[2]; 6700 nM,0.002 ± 0.037
same,level (log10),[2]; 20000 nM,-0.0175 ± 0.035
same,level (log10),[2]; 60000 nM,-0.092 ± 0.014
same,level (log10),[3]; 6700 nM,0.006 ± 0.023
same,level (log10),[3]; 20000 nM,0.018 ± 0.033
same,level (log10),[3]; 60000 nM,-0.016 ± 0.082
same,level (log10),[4]; 6700 nM,-0.036 ± 0.033
same,level (log10),[4]; 20000 nM,-0.0565 ± 0.039
same,level (log10),[5]; 1500 nM,-0.004 ± 0.0014
same,level (log10),[5]; 4400 nM,-0.0315 ± 0.054
same,level (log10),[5]; 13000 nM,-0.029 ± 0.052
same,level (log10),[5]; 40000 nM,-0.08 ± 0.0057
same,level (log10),1-(Perfluorohexyl)octane; 6700 nM,0.001 ± 0.0057
same,level (log10),1-(Perfluorohexyl)octane; 20000 nM,0.017 ± 0.0085
